One series has as its target T1, CFR1R receptor (Homo sapiens, UniProt P34998).
T1 construct: host or cells: CHO-K1 (clone 2)
T1 sequence (P34998 24-415): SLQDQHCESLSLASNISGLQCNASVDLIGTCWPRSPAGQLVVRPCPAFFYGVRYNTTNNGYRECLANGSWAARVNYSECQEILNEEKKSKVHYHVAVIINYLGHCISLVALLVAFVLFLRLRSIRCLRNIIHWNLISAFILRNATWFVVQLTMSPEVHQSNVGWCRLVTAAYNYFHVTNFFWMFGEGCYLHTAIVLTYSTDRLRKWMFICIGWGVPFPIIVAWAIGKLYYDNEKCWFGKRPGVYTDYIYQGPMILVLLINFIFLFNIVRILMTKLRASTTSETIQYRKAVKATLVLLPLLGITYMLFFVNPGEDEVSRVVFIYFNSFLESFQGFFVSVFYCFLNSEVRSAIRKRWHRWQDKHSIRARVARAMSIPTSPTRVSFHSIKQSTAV
Kind of series: Activity at anti-target CFR1R receptor, cAMP assay in CRF1R-overexpression CHO-K1 cells. In kind it is cell-based. The settings on record: 100% = Sauvagine at 100 nM; for EC50: cAMP. Summed up: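 Run as for the TeloHAEC line, except the full-activation control well received Sauvagine (100 nM) and final density was 4000 cells/well. Cells from clone 2 came from frozen aliquots of near-confluent cultures.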
(cAMP levels reflect the balance of adenylyl cyclase and phosphodiesterase activity.)

Another series deals with T2, human CRF2a receptor (Homo sapiens, UniProt Q13324).
T2 construct: expressed in transfected cells; host or cells: TeloHEAC cells
T2 sequence (Q13324 1-411): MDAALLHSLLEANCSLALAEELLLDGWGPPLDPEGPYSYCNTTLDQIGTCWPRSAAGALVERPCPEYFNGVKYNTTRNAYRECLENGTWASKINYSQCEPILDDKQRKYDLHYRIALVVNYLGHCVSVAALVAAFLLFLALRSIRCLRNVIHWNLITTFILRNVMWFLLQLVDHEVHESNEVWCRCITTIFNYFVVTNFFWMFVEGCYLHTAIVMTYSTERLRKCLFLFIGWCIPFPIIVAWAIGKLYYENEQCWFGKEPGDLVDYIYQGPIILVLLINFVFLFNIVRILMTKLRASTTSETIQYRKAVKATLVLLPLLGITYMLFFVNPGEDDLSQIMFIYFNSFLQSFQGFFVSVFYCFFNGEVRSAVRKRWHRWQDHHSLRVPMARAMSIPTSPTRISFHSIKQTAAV
Kind of series: Activity at human CRF2a receptor, cAMP functional assay in TeloHEAC cells. Type of series: cell-based. The settings on record: TeloHEAC cells stably expressing human CRF2a receptor, relative to urocortin 2 (100 nM = 100%). Summed up: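 TeloHEAC cells stably expressing human CRF2a (10000 cells/well) were treated with 16-point 1:2 compound dilutions in HBSS/20 mM HEPES with IBMX for 30 min at 37° C. cAMP was read by HTRF (665/620 nm ratio). EC50 was the concentration giving 50% activation, with 100 nM urocortin 2 set as 100%.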

A short description of series [1]: In vitro subcutaneous tissue supernatant (SCts) stability and metabolite identification, rat. The settings on record: male, Sprague Dawley; rat subcutaneous tissue supernatant (SCts), 37° C, 2 h. Type of series: in vitro ADME. Details: remaining at 2 h: dose or concentration left out as unconfirmed. Here is the method:
In vitro metabolic stability in subcutaneous tissue supernatant (SCts) was studied in male Sprague Dawley rats. Test compounds were incubated […] for 2 hours at 37° C.
Software aided in vitro metabolite identification on SCts stability samples was performed using either Metabolite Pilot (Sciex) or Biopharma Finder (Thermo). In addition, metabolite identification using Metabolite Pilot was performed on plasma samples of Comp Y following SC administration to rat at 1 mg/kg.

The subject of another series is Sprague Dawley rats. Kind of series: Effect on systolic blood pressure, telemetry in Sprague Dawley rats. In kind it is in vivo, rat. The settings on record: 0.1 mg/kg SC; for Systolic blood pressure (Mean) % change from baseline, 8 h / Systolic blood pressure (Mean) % change from baseline, 12 h / Systolic blood pressure (Mean) % change from baseline, 24 h: n=2; for Duration of action: last time point with an effect on BP still observed. Summed up:
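Sprague Dawley rats with abdominal-aorta telemetry catheters, recovered ≥10 days, received 0.1 mg/kg SC of compound or vehicle. Systolic pressure recorded 1 h pre-dose as baseline, then continuously up to 48 hours, expressed as % change from baseline; duration of action is last time point with a BP effect (n=2).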

Series [2] is described as follows: Chemical stability in buffer (pH 7.4 / pH 4.5), % purity loss. In kind it is physicochemical. The settings on record: 100 mM phosphate buffer pH 7.4; 40° C. vs 5° C.; 14 or 28 days. The method in brief:
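Compounds dissolved at 10 mg/mL target in 100 mM phosphate (pH 7.4) or 100 mM acetate (pH 4.5) buffer for 1 h at room temperature, then centrifuged. Diluted supernatant stored at 5 °C or 40 °C for 14 or 28 days; % purity loss by LC-UV.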

*1 amine or outer side, *2 acyl side, *3 side chain or, on linkers, in order; H or OH if unused. Where a SMILES comes first, the peptide text is derived from it. Side-chain parts run from the residue outwards. [ ]: non-standard residue; d: D form. The star is where a group is joined. C16 diacid = O=C(O)CCCCCCCCCCCCCCC(=O)*; γGlu = O=C(O)[C@H](CCC(=O)[*:2])N[*:1]; Aib = CC(C)(N)C(=O)O

Regarding `CC[C@H](C)[C@H](NC(C)=O)C(=O)N[C@H](C(=O)N[C@@H](CC(C)C)C(=O)N[C@@H](CO)C(=O)N[C@@H](CC(C)C)C(=O)N[C@@H](CC(=O)O)C(=O)N[C@@H](C(=O)N1CCC[C@H]1C(=O)N[C@H](C(=O)N[C@@H](CCCCN)C(=O)N[C@@H](CC(C)C)C(=O)N[C@@H](CCCCNC(=O)CC[C@H](NC(=O)CCCCCCCCCCCCCCC(=O)O)C(=O)O)C(=O)N[C@@H](CCCCN)C(=O)N[C@H](C(=O)N[C@@H](CC(C)C)C(=O)N[C@@H](CC(C)C)C(=O)N[C@@H](CCC(=O)O)C(=O)N[C@@H](CCC(N)=O)C(=O)N[C@@H](CCC(=O)O)C(=O)N[C@@H](CCCCN)C(=O)N[C@@H](CCC(N)=O)C(=O)N[C@@H](CCCCN)C(=O)N[C@@H](CCCCN)C(=O)N[C@@H](CCC(N)=O)C(=O)N[C@@H](CCCNC(=N)N)C(=O)N[C@@H](CCC(=O)O)C(=O)N[C@@H](CCC(N)=O)C(=O)N[C@@H](C)C(=O)N[C@@H](CCC(=O)O)C(=O)N[C@H](C(=O)N[C@@H](CC(N)=O)C(=O)NC(C)(C)C(=O)N[C@@H](CCC(N)=O)C(=O)N[C@H](C(=O)N[C@@H](CC(C)C)C(=O)N[C@@H](C)C(=O)N[C@@H](CCC(N)=O)C(=O)N[C@H](C(N)=O)C(C)C)[C@@H](C)CC)[C@@H](C)O)[C@@H](C)CC)[C@@H](C)CC)C(C)C)C(C)C` [compound 40] (Ac-IVLSLD[dV]PIKLK([γGlu-C16 diacid])KILLEQEKQKKQREQAETN[Aib]QILAQV-NH2), on CFR1R receptor, the “Emax (% I)” value is listed as 0 % I and the EC50 – broadly, the concentration at which the effect is half-maximal – is more than 250 nM. Besides, at human CRF2a receptor, the EC50 is 0.25 nM. Further, the amount remaining (as a rule, what is left of the initial amount, in per cent) at 2 h in series [1] was found to be 79%. In the series with Sprague Dawley rats, the “Systolic blood pressure (Mean) % change from baseline, 8 h” value is recorded as −30%; the “Systolic blood pressure (Mean) % change from baseline, 12 h” value is −18%; the “Systolic blood pressure (Mean) % change from baseline, 24 h” value stood at 7%; the Duration of action is 23 h. Besides, the “Buffer stability pH 7.4 % purity loss” value in series [2] was 0/nd ^ %.

Consider `CC[C@H](C)[C@H](NC(C)=O)C(=O)N[C@H](C(=O)N[C@@H](CC(C)C)C(=O)N[C@@H](CO)C(=O)N[C@@H](CC(C)C)C(=O)N[C@@H](CC(=O)O)C(=O)N[C@@H](C(=O)N1CCC[C@H]1C(=O)N[C@H](C(=O)N[C@@H](CCCCN)C(=O)N[C@@H](CC(C)C)C(=O)N[C@@H](CCCCNC(=O)CC[C@H](NC(=O)CCCCCCCCCCCCCCC(=O)O)C(=O)O)C(=O)N[C@@H](CCCCN)C(=O)N[C@H](C(=O)N[C@@H](CC(C)C)C(=O)N[C@@H](CC(C)C)C(=O)N[C@@H](CCC(=O)O)C(=O)N[C@@H](CCC(N)=O)C(=O)N[C@@H](CCC(=O)O)C(=O)N[C@@H](C)C(=O)N[C@@H](CCC(N)=O)C(=O)N[C@@H](CCCCN)C(=O)N[C@@H](CCCCN)C(=O)N[C@@H](CCC(N)=O)C(=O)N[C@@H](CCCNC(=N)N)C(=O)N[C@@H](CCC(=O)O)C(=O)N[C@@H](CCC(N)=O)C(=O)N[C@@H](C)C(=O)N[C@@H](CCC(=O)O)C(=O)N[C@H](C(=O)N[C@@H](CC(N)=O)C(=O)NC(C)(C)C(=O)N[C@@H](CCC(N)=O)C(=O)N[C@H](C(=O)N[C@@H](CC(C)C)C(=O)N[C@@H](C)C(=O)N[C@@H](CCC(N)=O)C(=O)N[C@H](C(N)=O)C(C)C)[C@@H](C)CC)[C@@H](C)O)[C@@H](C)CC)[C@@H](C)CC)C(C)C)C(C)C` [compound 165] (Ac-IVLSLD[dV]PIKLK([γGlu-C16 diacid])KILLEQEAQKKQREQAETN[Aib]QILAQV-NH2), for which, at CFR1R receptor, the “Emax (% I)” value is listed as 14 % I and the EC50 was more than 250 nM. Further, it took 0.64 nM to reach a half-maximal effect on human CRF2a receptor (EC50). For the same compound, in series [1], the share remaining at 2 h is 72%. Further, in the series with Sprague Dawley rats, the “Systolic blood pressure (Mean) % change from baseline, 8 h” value is listed as −30%; the “Systolic blood pressure (Mean) % change from baseline, 12 h” value is −20%; the “Systolic blood pressure (Mean) % change from baseline, 24 h” value came to 2%; the Duration of action is 23 h. Further, the “Buffer stability pH 7.4 % purity loss” value in series [2] is 0.0/Not Tested %.

These data come from patent US20260001928A1 (CORTERIA PHARMACEUTICALS, priority 2022, published 2026).
